Reference: patent US12233041B2, “Disulfonate stilbenes for use in the treatment of proliferative diseases” (UNIVERSITÉ DE NANTES, priority 2018, dated 2025)
“Also recorded” adds a separate entry of the source.

Assays:
Rad51 = target: T1, Rad51 (Homo sapiens, UniProt Q06609); assay: DNA invasion by D-loop assay (strand exchange); type: biochemical; details: 0.5 μM Rad51, 1 μM 100-ssDNA, 37° C.; read-out: IC50 (RAD51 protein inhibition, D-loop formation)
T1 sequence (Q06609 1-339): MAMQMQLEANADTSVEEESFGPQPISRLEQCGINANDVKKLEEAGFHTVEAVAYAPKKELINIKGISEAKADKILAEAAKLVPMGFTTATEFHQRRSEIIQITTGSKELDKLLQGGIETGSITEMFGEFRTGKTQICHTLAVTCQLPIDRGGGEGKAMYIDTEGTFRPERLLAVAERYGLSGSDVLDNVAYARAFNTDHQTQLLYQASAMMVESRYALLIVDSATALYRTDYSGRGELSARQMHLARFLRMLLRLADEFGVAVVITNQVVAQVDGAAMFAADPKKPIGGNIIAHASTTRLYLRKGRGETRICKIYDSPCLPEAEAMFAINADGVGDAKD
Method: Labeled 100-ssDNA** (1 μM) was incubated with 0.5 μM Rad51 in presence or absence of the indicated amounts of the corresponding molecule in 10 μL of standard reaction buffer containing 20 mM Tris-HCl (pH 8), 1 mM ATP, 1 mM DTT, 1 mM CaCl2) at 37° C. for 20 min. The reaction was initiated by adding supercoiled pPB4.3 DNA (200 μM in bp). After incubation of 30 min at 37° C., the reactions were stopped and deproteinized by a stop solution (10 mM Tris-HCl pH 8, 10 mM MgCl2, 1% SDS, and 1 mg/mL proteinase K. The reaction mixtures were further incubated for 15 min at 37° C. After adding 5-fold loading dye (0.05% bromophenol blue, 8% glycerol, 1 mM EDTA), the reaction products were separated by electrophoresis on 1% agarose gel. The electrophoresis was carried out in 0.5×TAE buffer (20 mM Tris, 10 mM acetic acid and 1 mM EDTA) at 100 V for 2 h. The labeled products (100-ssDNA** and D-loop) were visualized and quantified by the detection of the IRD-700 dye with the 700 nm infrared fluorescent detection channel of an Odyssey Infrared Imager (LI-COR) (Normand, A. et al., Biochemical Pharmacology, October 2014, Vol. 91, No. 3, pp. 293-300).
The “D-loop” in vitro test allows the quantification of the formation of the strand exchange structure (D-loop) and thus the determination of the inhibitory power of a molecule during the strand exchange step of the recombinase mechanism. IC50 measuring the RAD51 protein inhibition in presence of compounds A-1 to A-5, […] and DIDS are then calculated.

[1] = system: RAD51 foci in DU-145 cells; assay: Rad51 foci quantification by immunofluorescence; type: cell-based; details: DU-145, B-2 20 μM + cisplatin 30 μM; FIG. 8
Method: DU-145 cells were grown on coverslips (Life Technologies) at a density of 5×10^3 cells per well in medium (RPMI) supplemented with 10% fetal bovine serum (Gibco-Invitrogen). Cells were treated with Cisplatin at 30 μM for 1 hour in presence or in absence of RAD51 inhibitor B-2 at 20 μM, and then the medium was replaced with molecule-free medium. After 18 h, cells were washed once in PBS for 5 min and fixed with ethanol absolute for 25 min.
The fixed cells were incubated for 1 h in the PBS buffer containing 1:1000 diluted anti-RAD51 antibody at room temperature. After three 5-min washes in PBS, slides were incubated with PBS solution containing the secondary antibody conjugated with AlexaFluor 555 ([…]) for 45 min in dark room. […] The images were recorded with NIS Element software (Version 3.6, Nikon, Tokyo, Japan). The quantification of RAD51 foci was processed with a program derived from Fiji-ImageJ software (NIH, Bethesda, Maryland, USA). […]
The treatment with Cisplatin alone induces a high level of RAD51 foci, whereas this level is decreased when the treatment is associated with B-2 20 μM. After the quantification of the number of RAD51 foci per cell, the number of cells containing more than 20 RAD51 foci was determined.

HsRad51 = target: T2, HsRad51 (Homo sapiens, UniProt Q06609); assay: RAD51 oligomerization by SDS-PAGE gel after crosslink; type: biochemical; details: 2.5 μM HsRad51, disuccinimidyl suberate crosslink, SDS-PAGE/Western blot; FIG. 1
T2 sequence (Q06609 1-339): T1 sequence (Q06609 1-339)
Method: The reaction was performed at room temperature. 2.5 μm HsRad51 was incubated with the indicated concentrations of tested compounds for 10 min in a buffer containing 20 mm sodium phosphate, 50 mm NaCl, 1 mm MgCl 2, and 1 mm ATP. The cross-linking reactions were initiated by the addition of disuccinimidyl suberate (50 μm) and allowed to proceed for 30 min. Reactions were quenched by the addition of Tris-HCl (pH 7.5, final concentration: 50 mm) followed by subsequent incubations for 15 min. The products were then separated by 12% SDS polyacrylamide gel electrophoresis and detected by Western blot with mouse monoclonal anti-Rad51 antibody (NeoMarkers) and anti-mouse Alexa-Fluor 700-conjugated secondary antibody (Molecular Probes, Eugene, OR). The cross-linked dimer was quantified by an Odyssey Infrared Imaging System scanner (Li-Cor Biosciences) (Martinez, S. F. et al., “Targeting human Rad51 by specific DNA aptamers induces inhibition of homologous recombination”, Biochimie, December 2010, Vol. 92, No. 12, pp. 1832-1838).
The SDS-PAGE electrophoresis after crosslink maintains and immobilizes the RAD51 protein complexes and thus allows visualization of the degree of oligomerization (polymer formation) of the RAD51 protein. The effect of RAD51 protein inhibitors B-1, B-2, B-3, DIDS and X-4 on this key step of RAD51 protein recombinase activity has thus been evaluated. The results are presented on FIG. 1.

N#Cc1ccc(/C=C/c2ccc(C#N)cc2S(=O)(=O)[O-])c(S(=O)(=O)[O-])c1.[Na+].[Na+] [B-2, Sodium (E)-6,6′-(ethene-1,2-diyl)bis(3-cyanobenzenesulfonate)]
IC50 (Rad51): 5 µM | decrease of level of RAD51 foci mediated by cisplatin (cells containing more than 20 RAD51 foci) [1]: about 20% | oligomerization state of RAD51 protein (HsRad51): significant reduction; also recorded: very strongly diminished
